Reference: patent US8951527B2, “Radioprotectants targeting thrombospondin-1 and CD47” (The United States of America, as represented by the …, priority 2008, dated 2015)

Legend:
C57BL/6 mice = experiment: Laser Doppler hind limb blood flow after NO challenge, 8 weeks post-radiation; format: in vivo, mouse; conditions: intramuscular 10 μM 48 hours before 25 Gy, 8 weeks post-injury
Procedure: FIG. 18. Targeting CD47 Protects Composite Tissue From Radiation-Induced Vascular Damage. Age matched male C57BL/6 mice received 25 Gy to both hind limbs. Forty-eight hours prior to irradiation the right hind limb was treated by direct intra-muscular injection with the CD47 morpholino (750 μl at 10 μM concentration). The opposite (control) limb received nothing. Eight weeks post-radiation hind limb blood flow changes to a nitric oxide (NO) challenge (DEA/NO 100 nmol/g body weight via rectal instillation) was assessed via Laser Doppler imaging (FIG. 18A). In other experiments, the opposite (control) limb received injection of either missense oligonucleotide or sterile PBS with similar results (not shown). Laser Doppler was performed under 1.5% isoflurane inhalation anesthesia with animal core temperature held constant at 36.5° C. […]
Laser Doppler analysis: Hind limb flow was measured using laser Doppler imaging (MoorLD1-2λ, Moor Instruments, Devon, England). […] Core temperature was monitored by rectal probe and was further controlled with a heat lamp. […] After equilibration to the experimental set-up baseline, hind limb blood flow was measured. […] Results are expressed as the change percent control from baseline of the ROI.
Laser Doppler Analysis: Hind limb blood flow was measured using laser Doppler imaging as described above. […]

B16 melanoma tumors = experiment: Histology, TUNEL and CD68 staining of irradiated B16 tumors; format: in vivo, mouse; conditions: morpholino 48 hours before 10 Gy, 24 hours post-radiation
Procedure: FIG. 21. Increased fibrotic response, viable immune reaction, and macrophage infiltration is seen in tumors with suppressed CD47 expression. C57BL/6 mice were injected with 1×10^6 B16 mouse melanoma cells into their hind limbs. Treatment consisted of two groups where the hind limbs were treated with either 150 μl of PBS or 150 μl of CD47 morpholino (10 μM) 48 hours prior to radiation (10 Gy). The control group consisted of just tumor without radiation. 24 hours post-radiation the mice were sacrificed, and their hindlimbs were prepared in paraffin embedded tissue sections for analysis. The top panels represent hind limbs and tumors in each group stained by standard H&E protocol (FIG. 21A). […] Positive (apoptotic) cells are indicated by brown nuclear staining (FIG. 21B). […] Dark staining within the tumor indicates macrophage infiltration. Images were acquired using either a 4× or 10× objective.
Immunohistochemical Evaluation: Staining for the macrophage marker CD68 was done as previously described (Manso et al., Cancer Res 68:7090-7099, 2008) utilizing a rat anti-mouse CD68 antibody (AbD Serotec, Raleigh, N.C.). H&E staining of tissue hind limbs was prepared by American HistoLabs, Gaithersburg, Md.
Tissue Apoptosis: The ApopTag in situ detection kit (Chemicon, Millipore, Mass.) was used as described in Example 1. Additionally, animals were injected with 1×10^6 B16 melanoma cells and treated with either CD47 morpholino or sterile PBS as previously described. Mice were sacrificed 24 hours post irradiation (10 Gy), and hind limbs were embedded in paraffin blocks. Tissue sections incorporating the entire hind limb were examined for apoptosis employing 3′-hydroxy DNA strand breaks enzymatically labeled with digoxygenin nucleotide via TdT. Positive and negative control slides provided with the kit are used in each assay to ensure consistency.

CGTCACAGGCAGGACCCACTGCCCA (all phosphorodiamidate morpholino (PMO)) [CD47 morpholino, CD47 targeting morpholino oligonucleotide]
vascular perfusion in response to DEA/NO challenge (laser Doppler) (C57BL/6 mice): enhanced vascular perfusion | H&E of irradiated tumors (fibrosis, necrosis) (B16 melanoma tumors): greater fibrosis and necrotic response | apoptotic cells associated with the tumor (TUNEL) (B16 melanoma tumors): minimal numbers of apoptotic cells | macrophage marker CD68 staining of tumors (B16 melanoma tumors): positive staining in the periphery
